Measured values taken from US20100152206A1, “Bicyclic Dihydropyrimidines and Uses Thereof” (priority 2005, published 2010).

Key:
[1] = biological target: T1, Eg5 motor domain construct Eg5-367H (Homo sapiens, UniProt P52732); experiment: Activity of Eg5 inhibitors in pure protein assay (microtubule-stimulated ATP hydrolysis, malachite green phosphate detection); format: biochemical; conditions: microtubule-stimulated ATP hydrolysis by Eg5-367H, 25 degrees, 2 hours
T1 construct: the Eg5 motor domain construct Eg5-367H; His tag (read from the 'H' in the construct name; not spelled out for this construct)
T1 sequence (P52732 18-359 limits assumed): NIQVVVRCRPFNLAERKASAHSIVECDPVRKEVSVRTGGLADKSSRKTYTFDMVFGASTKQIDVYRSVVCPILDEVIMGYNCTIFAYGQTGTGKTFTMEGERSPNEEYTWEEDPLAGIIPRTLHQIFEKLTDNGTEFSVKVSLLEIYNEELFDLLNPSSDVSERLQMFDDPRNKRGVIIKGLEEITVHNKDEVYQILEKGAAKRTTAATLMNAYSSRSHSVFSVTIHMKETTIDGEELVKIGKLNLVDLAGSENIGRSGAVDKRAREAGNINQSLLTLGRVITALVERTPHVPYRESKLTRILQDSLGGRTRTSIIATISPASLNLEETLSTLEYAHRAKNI
Experimental: We utilized a colorimetric phosphate detection assay (Funk, 2004) to measure microtubule-stimulated ATP hydrolysis by the Eg5 motor domain construct Eg5-367H (Maliga, 2002) as a function of drug concentration. Stocks solutions of each compound were prepared by serial dilution into DMSO and 0.1 microliters was added by pin transfer into KC25 buffer (20 mM PIPES-KOH, pH 6.9, 25 mM KCl, 2 mM MgC12) supplemented with 1 mM ATP-KOH, pH 6.9. KC25 supplemented with 10 micromolar taxol, 50 nanomolar Eg5-367H, and 1 micromolar taxol-polymerized microtubules was then added and the reaction incubated at 25 degrees for 2 hours. Malachite green assay solution (7% (w/v) perchloric acid, 0.0075% (w/v) malachite green oxalate, 0.2% (w/v) sodium molybdate dihydrate) was added to each reaction and the optical absorbance at 640 nm (640) was measured after a 30 minute incubation using a Wallac II automated plate reader. A640 as a function of! drug concentration (C) was fit to the equation A640=A0+B/(1+C/IC50) using Kaleidegraph 3.0, A0 is the basal A640, B is the maximum increase in A640, and IC50 is the drug concentration that inhibits half the Eg5 activity.

[2] = test system: Hela cells; experiment: cells; conditions: Homo sapiens, 20 h
Experimental: Hela cells were grown (Maliga, et. al. 2001) to 20% confluence in 384-well, clear-bottomed, black-walled NUNC plates and serial dilutions of prospective Eg5 inhibitors were added by pin transfer, as above [0277], incubated at 37° C. for 20 hours, fixed with TBS-0.1% Triton X100 supplemented with 4% formaldehyde, and stained stained for DNA, phosphorylated Ser10-Histone 3, and alpha-tubulin. Each drug concentration was inspected for the characteristic monoaster phenotype: condensed phospho-S10 positive chromosomes arranged in a rosette pattern around a circularly symmetric array of microtubules, and the absence of bi-polar mitotic spindles.

| Structure (SMILES) | IC50 [1] [µM] | IC50 [2] [µM] |
| --- | --- | --- |
| O=C1NCCC2=C1C(c1cccc(O)c1)NC(=S)N2 (stereo not shown) [Entry 1] | 1.5 | 50 |
| CCOC(=O)C1=C(CCN)NC(=S)NC1c1cccc(O)c1 (stereo not shown) [Entry 2] | > 30 | > 300 |
| CCOC(=O)C1=C(CCNC(=O)OC(C)(C)C)NC(=S)NC1c1cccc(O)c1 (stereo not shown) [Entry 3] | > 30 | > 300 |
| CCOC(=O)C1=C(CCO[Si](C(C)C)(C(C)C)C(C)C)NC(=S)NC1c1cccc(O)c1 (stereo not shown) [Entry 4] | > 30 | > 300 |
| O=C1OCCC2=C1C(c1cccc(O)c1)NC(=S)N2 (stereo not shown) [Entry 5] | 0.5 | 30 |
| CCOC(=O)C1=C(CN)NC(=S)NC1c1cccc(O)c1 (stereo not shown) [Entry 6] | 12 | 200 |
| CCOC(=O)C1=C(CO)NC(=S)NC1c1cccc(O)c1 (stereo not shown) [Entry 7] | 30 | 300 |
| O=C1OCC2=C1C(c1cccc(O)c1)NC(=S)N2 (stereo not shown) [Entry 8] | 20 | 300 |
| O=C1NCC2=C1C(c1cccc(O)c1)NC(=S)N2 (stereo not shown) [Entry 9] | 12 | > 300 |
| CCOC(=O)C1=C(C)NC(=S)NC1c1cccc(N)c1 (stereo not shown) [Entry 10] | > 30 | > 300 |
| CCOC(=O)C1=C(C)NC(=S)NC1c1cccc(O)c1 (stereo not shown) [Monastrol, reference compound] | 12 | 300 |
